Laboratory results as given in patent US10973831B2, “Fluoropiperidine compounds as pure 5-HT 6 receptor antagonists” (SUVEN LIFE SCIENCES LIMITED, priority 2017, dated 2021).

Tests used:
[1] = tested on: extracellular levels of acetylcholine in ventral hippocampus; assay: Acetylcholine modulation in ventral hippocampus (microdialysis); assay type: in vivo, male Wistar rats; conditions: Example 1 10 mg/kg; for acetylcholine peak levels, % of pre-dose levels: p.o. in combination with donepezil 1 mg/kg, s.c.
Text: Four groups of male Wistar rats (240-300 g body weight) were stereotaxically implanted with a microdialysis guide cannula in ventral hippocampus (AP: −5.2 mm, ML: +5.0 mm, DV: −3.8 mm) under isoflurane anesthesia. Co-ordinates were taken according to atlas for the rat brain (Paxinos and Watson 2004) with reference points taken from bregma and vertical from the skull. […] After surgical recovery of 4-5 days, male Wistar rats were connected to dual quartz lined two-channel liquid swivel (Instech, UK) on a counter balance lever arm, which allowed unrestricted movements of the animal. […] On the day of study, probe was perfused with artificial cerebrospinal fluid (aCSF; NaCl 147 mM, KC13 mM, MgCl2 1 mM, CaCl2. 2H2O 1.3 mM, NaH2PO4.2H2O 0.2 mM and Na2HPO4.7H2O 1 mM, pH 7.2) at a flow rate of 1.5 μL/min and a stabilization period of 2 h was maintained. […] Dialysate samples were collected for an additional period of 4 h post treatment of example 1. Dialysates were stored below −50° C. prior to analysis. Acetylcholine in dialysate was quantified using LC-MS/MS method in the calibration range of 0.099 nmol/L-70.171 nmol/L. […] Incorrect probe placement was considered as criteria to reject the data from animal.

Male Wistar rats = assay: Object recognition task model; assay type: in vivo; conditions: rat, 0.1 mg/kg, p.o.
Protocol: The cognition-enhancing properties of compounds of this invention were estimated using an animal model of cognition i.e., object recognition task.
Male Wistar rats (˜230-280 grams) were used as experimental animals. Four animals were housed in each cage. Animals were kept on 20% food deprivation before one day and given water ad libitum throughout the experiment and maintained on a 12 hours light/dark cycle. The rats were habituated to individual arenas for […] in the absence of any objects.
One group of 12 rats received vehicle (1 mL/kg) orally and another set of animals received compound of the formula (I) orally thirty minutes prior to familiar (T1) and choice trial (T2).
The experiment was carried out in a 50×50×50 cm open field made up of acrylic. During the familiarization phase (T1), the rats were placed individually in the open field for 3 minutes, in which two identical objects (plastic bottles, 12.5 cm height×5.5 cm diameter) covered in yellow masking tape alone (a1 and a2) were positioned in two adjacent corners (10 cm from the walls). After 24 hours of the (T1) trial, the same rats were placed in the same arena as they were placed in T1 trial. During the choice phase (T2) rats were allowed to explore the open field for 3 minutes in presence of one familiar object (a3) and one novel object (b) (Amber color glass bottle, 12 cm high and 5 cm in diameter). During the T1 and T2 trial, explorations of each object (defined as sniffing, licking, chewing or having moving vibrissae whilst directing the nose towards the object at a distance of less than 1 cm) were recorded separately by stopwatch.
T1 is the total time spent exploring the familiar objects (a1+a2).
T2 is the total time spent exploring the familiar object and novel object (a3+b).

SMILES: Cl.O=S(=O)(c1ccccc1)c1ccc2c(c1)OCCN2C1CCNCC1F (single isomer, unassigned; peak iii) [Example 1, 7-Phenylsulfonyl-4-(3-fluoropiperidin-4-yl)-3,4-dihydro-2H-benzo[1,4]oxazine hydrochloride (Peak III)]
- Mean area under the curve values (AUC) of percent change in acetylcholine ([1]; p.o. + donepezil + memantine, compared to donepezil and memantine combination): significantly higher
- Mean area under the curve values (AUC) of percent change in acetylcholine ([1]; p.o. + donepezil, compared to donepezil 1 mg/kg, s.c. alone): significantly higher
- acetylcholine peak levels, % of pre-dose levels [1]: 1445±247%
- acetylcholine peak levels, % of pre-dose levels ([1]; s.c. and memantine 1 mg/kg): 2822±415%
- Exploration time mean ± S.E.M, Familiar object (Male Wistar rats; choice trial T2): 7.03 ± 1.1 s
- Exploration time mean ± S.E.M, Novel object (Male Wistar rats; choice trial T2): 12.16 ± 0.72 s
- Inference (Male Wistar rats; object recognition task): Active
